Measurements as given in patent US5312816A, “Method of combatting osteoporosis in mammalian subjects, utilizing organic boron compounds” (priority 1993, dated 1994).
pIC50: −log10 of the molar value.

How the values were obtained:
[1] = target: T1, Cathepsin (Rattus norvegicus, UniProt P24268); assay: Rat PMNs cathepsin activity; assay type: cell-based; details: pH 5; 5 × 10^-6 M, N=6; read-out: Rat PMNs Cathep.
T1 construct: azocasein assay pH 5.0
Description: 2. PMNs-polymorphonuclear neutrophils-rat peritoneal cavity 0.5% oyster glycogen.
(§1) 2. Acid Cathepsin D -azocasein-pH 5.0, hydrolytic azo-peptide produce 366 nm.

[2] = in vivo; details: mouse, Table 1, N=6
Procedure: Amine borane compounds (0 to 100 mg/kg) were administered to CF1 male mice as a single injection with six mice for each dosage. Mice were weighed daily and the number of deaths was recorded each day for a 14 day period. The LD50 value was determined by the procedure of S.C. Gad and C.S. Weil, "Statistics for Toxicologists" in Principles and Methods of Toxicology, A.W. Hayes, Ed., 2nd Edition, P 435-483 Raven Press, New York 1982.

[3] = target: T2, Cathepsin D (Mus musculus, UniProt P18242); assay: Mouse hepatic lysosomal cathepsin D activity; assay type: biochemical; details: for pIC50: Table XV, mouse hepatic, 60 min incubation, read-out: Cathepsin D IC50
T2 construct: azocasein assay pH 5.0
T2 sequence (P18242 65-410): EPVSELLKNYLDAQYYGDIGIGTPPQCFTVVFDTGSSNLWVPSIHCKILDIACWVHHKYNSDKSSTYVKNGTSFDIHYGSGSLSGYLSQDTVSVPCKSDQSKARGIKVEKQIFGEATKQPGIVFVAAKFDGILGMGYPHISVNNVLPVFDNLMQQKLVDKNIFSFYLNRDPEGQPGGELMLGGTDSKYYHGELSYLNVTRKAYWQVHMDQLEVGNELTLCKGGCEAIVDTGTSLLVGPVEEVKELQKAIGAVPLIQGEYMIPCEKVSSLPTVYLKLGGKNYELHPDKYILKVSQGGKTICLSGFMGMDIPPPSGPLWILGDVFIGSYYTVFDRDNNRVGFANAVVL
Description: (§2) 1. Cf1 male mouse hepatic 10% homogenates in 0.25M sucrose+0.001MEDTA,pH 7.2.
(§3) Lysosomal Enzymes - free and total [triton X-100].
as §1
Cathepsin azo casein activity -

[4] = target: T3, 5'-lipoxygenase (Mus musculus, UniProt P48999); assay: Mouse hepatic 5'-lipoxygenase activity; assay type: biochemical; details: Table VI; mouse hepatic, 60 min incubation; read-out: 5'-lipoxygenase IC50
T3 construct: Cf1 male mouse hepatic 10% homogenates; from tissue; host or cells: CF1 male mouse liver, 10% homogenate
T3 sequence (P48999 1-674): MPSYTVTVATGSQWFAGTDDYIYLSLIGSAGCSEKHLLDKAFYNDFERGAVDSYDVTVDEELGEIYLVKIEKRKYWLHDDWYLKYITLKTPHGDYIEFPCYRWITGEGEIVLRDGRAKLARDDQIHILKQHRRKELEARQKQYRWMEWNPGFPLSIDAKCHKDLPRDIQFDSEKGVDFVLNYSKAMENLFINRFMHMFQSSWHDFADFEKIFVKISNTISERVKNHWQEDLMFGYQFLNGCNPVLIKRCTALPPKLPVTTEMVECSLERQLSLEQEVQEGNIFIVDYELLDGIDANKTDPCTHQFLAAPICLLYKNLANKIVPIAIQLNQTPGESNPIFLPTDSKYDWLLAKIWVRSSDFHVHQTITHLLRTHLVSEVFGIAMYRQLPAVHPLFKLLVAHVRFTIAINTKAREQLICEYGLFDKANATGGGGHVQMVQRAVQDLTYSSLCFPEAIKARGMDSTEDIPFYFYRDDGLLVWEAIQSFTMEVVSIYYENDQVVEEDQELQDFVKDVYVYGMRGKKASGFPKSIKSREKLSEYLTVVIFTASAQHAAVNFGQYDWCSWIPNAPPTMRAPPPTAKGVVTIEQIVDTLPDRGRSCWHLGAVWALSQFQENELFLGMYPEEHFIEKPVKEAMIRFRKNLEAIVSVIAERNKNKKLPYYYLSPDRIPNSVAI
Description: as §2
5'-lipoxygenase Mylari, B.L., et al, J. Med.

[5] = system: Elastase; assay: Human osteoporosis fibroblasts elastase activity; assay type: cell-based; details: Table XI; human osteoporosis fibroblasts, 60 min incubation; read-out: Elastase IC50
Description: 2. Elastase- N-succinyl-L-alanyl-L-alanine-p-nitroanilide, pH 8.0, p-nitro anilide 410 nm.

[6] = target: T4, Cathepsin D (Homo sapiens, UniProt P07339); assay: Human osteoporosis fibroblasts cathepsin D (azo-casein) activity; assay type: cell-based; details: Table X; human osteoporosis fibroblasts, DMEM +10% FCS + P/S; read-out: Cathepsin D IC50
T4 construct: azocasein assay pH 5.0
T4 sequence (P07339 65-412): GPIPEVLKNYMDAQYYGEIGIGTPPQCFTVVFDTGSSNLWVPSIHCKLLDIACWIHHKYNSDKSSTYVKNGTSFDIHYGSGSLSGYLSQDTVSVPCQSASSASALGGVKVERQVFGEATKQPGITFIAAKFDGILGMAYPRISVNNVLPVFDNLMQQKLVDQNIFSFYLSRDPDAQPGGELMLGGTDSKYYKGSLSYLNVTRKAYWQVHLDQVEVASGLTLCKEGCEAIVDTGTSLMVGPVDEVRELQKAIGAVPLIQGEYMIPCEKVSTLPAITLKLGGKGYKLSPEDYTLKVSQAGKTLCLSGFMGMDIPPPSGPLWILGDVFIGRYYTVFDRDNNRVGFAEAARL
Description: Osteoporosis Human Fibroblast-CRL-1140, Be SA1

[7] = system: Aryl sulphatase; assay: Human osteoporosis fibroblasts aryl sulphatase activity; assay type: cell-based; details: Table X; human osteoporosis fibroblasts; read-out: Aryl Sulphatase IC50
Description: (§4) 3. Aryl sulphatase- p-nitrocatechol sulfate, pH
(§5) 5. 8 p-nitro-catechol product 510 nm.

[8] = system: Aryl sulphatase; assay: Mouse macrophage aryl sulphatase activity; assay type: cell-based; details: 60 min incubation, read-out: Aryl Sulphatase IC50
[9] = system: Cf1 male mice; assay: Writhing reflex, 0.6% acetic acid; assay type: in vivo; details: Mus musculus, ip, Table IV
[10] = system: Trypsin; assay: Mouse macrophage trypsin (BAEE) activity; assay type: cell-based; details: 60 min incubation, read-out: Trypsin BAEE IC50
[11] = system: Sprague Dawley Rats; assay: Anti-inflammatory activity in Sprague Dawley rats; assay type: in vivo; details: Table IV; 8 mg/kg I.P.
[12] = system: Prostaglandin cyclooxygenase; assay: Mouse macrophage prostaglandin cyclooxygenase activity; assay type: cell-based; details: 60 min incubation, read-out: Prostaglandin Cyclooxygenase IC50
Description: (§6) 3. Mouse macrophages J774A.1 BALB/c
Prostaglandin synthetase purified beef seminal vesicle ^3 H arachidonic acid (86.2 Ci/mmol), tlc separation.

[13] = system: Trypsin; assay: Human osteoporosis fibroblasts trypsin (BAEE) activity; assay type: cell-based; details: Table XI; human osteoporosis fibroblasts, 60 min incubation; read-out: Trypsin BAEE IC50
Description: (§7) 1. Trypsin- N-benzoyl-L-arginine ethyl ester pH 8.0, hydrolytic product 253 nm.

[14] = system: Elastase; assay: Mouse macrophage elastase activity; assay type: cell-based; details: 60 min incubation, read-out: Elastase IC50
[15] = system: Prostaglandin cyclooxygenase; assay: Human osteoporosis fibroblasts prostaglandin cyclooxygenase activity; assay type: cell-based; details: Table XI, 60 min incubation, read-out: Prostaglandin Cyclooxygense IC50
[16] = system: Acid phosphatase; assay: Mouse macrophage acid phosphatase activity; assay type: cell-based; details: 60 min incubation, read-out: Acid Phosphatase IC50
[17] = system: Acid phosphatase; assay: Human osteoporosis fibroblasts acid phosphatase activity; assay type: cell-based; details: Table X; human osteoporosis fibroblasts; read-out: Acid Phosphatase IC50
Description: (§8) 1. Acid phosphatase -beta glycerol-3-phosphate, pH 5.0, released IP 720 nm.

[18] = system: Cf1 male mice; assay: Anti-inflammatory screen, Winter's test, 2% carrageenan hind foot; assay type: in vivo; details: Table XIV; unit inferred; unit assumed
Procedure: Anti-inflammatory Screen- Cf1 - male mice-Winter's Test 2% carrageenan S.C. plantar surface of hind foot, drugs administered @8 or 10 mg/kg I.P. 2X
Winter, C.A., et al, Proc. Soc.

[19] = target: Acid phosphatase; assay: Mouse hepatic lysosomal acid phosphatase activity; assay type: biochemical; details: Table XV; mouse hepatic, 60 min incubation
Description: as §2, §3, §8
Acid phosphatase activity -

[20] = target: T2, Cathepsin D; assay: Mouse macrophage cathepsin D activity; assay type: cell-based; details: Table XVII; mouse macrophage, 60 min incubation; read-out: Cathepsin D pH 5.0 IC50
Description: as §6, §1

[21] = system: Sprague Dawley male rats; assay: Chronic adjuvant arthritis screen, Mycobacterium butyricum; assay type: in vivo; details: Table XIV; unit not given
[22] = target: Aryl sulphatase; assay: Mouse hepatic lysosomal aryl sulphatase activity; assay type: biochemical; details: Table XV, 60 min incubation
Description: as §2, §3, §4, §5

[23] = system: Sprague Dawley male rats; assay: Anti-pleurisy screen, Evans blue + carrageenan; assay type: in vivo; details: Table XIV; unit not given
[24] = target: Commercial Collagenase; assay: Commercial collagenase (type not stated); assay type: biochemical; details: Table XVI; 60 min incubation
Description: 3. Collagenase I, Clostridium histolyticum, bone, skin, tendon, blood vessel, dentine, GI. substrate: rat collagen, N-[propionate-2-3-^3 H] propionylated measured as dpm released.
4. Collagenase II, Clostridium histolyticum, cartilage collagen.

[25] = system: Cf1 male mice; assay: Hot plate tail flick test; assay type: in vivo; details: Table XIV; unit not given
[26] = system: Trypsin; assay: Mouse hepatic trypsin activity; assay type: biochemical; details: Table XVI; 60 min incubation; read-out: Mouse Hepatic Trypsin IC50
Description: as §2, §7

[27] = target: T5, Pg. cyclooxygenase (Sus scrofa, UniProt A0A287ANF9); assay: Porcine seminal vesicles Pg. cyclooxygenase; assay type: biochemical; details: Table XVI; 60 min incubation
T5 construct: Porcine Seminal; from tissue; the methods section prints beef seminal vesicle
T5 sequence (A0A287ANF9 25-600): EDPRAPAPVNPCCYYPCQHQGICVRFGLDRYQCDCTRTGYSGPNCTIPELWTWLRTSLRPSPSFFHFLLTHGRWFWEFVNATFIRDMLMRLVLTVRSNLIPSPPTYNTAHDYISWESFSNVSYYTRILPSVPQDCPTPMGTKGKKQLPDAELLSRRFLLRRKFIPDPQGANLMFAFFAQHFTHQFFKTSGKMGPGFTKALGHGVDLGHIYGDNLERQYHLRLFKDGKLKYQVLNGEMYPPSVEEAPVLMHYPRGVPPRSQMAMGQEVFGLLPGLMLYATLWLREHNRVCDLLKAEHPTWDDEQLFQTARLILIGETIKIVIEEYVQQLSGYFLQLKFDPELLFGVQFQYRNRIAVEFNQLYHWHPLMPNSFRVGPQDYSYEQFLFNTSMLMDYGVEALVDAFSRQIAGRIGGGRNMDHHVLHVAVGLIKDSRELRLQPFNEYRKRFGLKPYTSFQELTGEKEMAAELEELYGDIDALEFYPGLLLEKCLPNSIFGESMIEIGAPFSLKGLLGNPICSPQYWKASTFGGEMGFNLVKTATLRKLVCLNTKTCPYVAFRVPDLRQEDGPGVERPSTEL

[28] = system: Cf1 male mice; assay: Writhing reflex, 0.6% acetic acid; assay type: in vivo; details: Table XIV; unit inferred; unit assumed
Procedure: Writhing reflex- Cf1 -male mice- 0.6% acetic acid I.P. drugs administered @20 mg/kg/ I.P. 20 min. later - the # of stretches/10 min.
Hendershot, L.C., et al, J.

[29] = Table VII, mouse macrophage cultured cells

T1 sequence (P24268 65-407): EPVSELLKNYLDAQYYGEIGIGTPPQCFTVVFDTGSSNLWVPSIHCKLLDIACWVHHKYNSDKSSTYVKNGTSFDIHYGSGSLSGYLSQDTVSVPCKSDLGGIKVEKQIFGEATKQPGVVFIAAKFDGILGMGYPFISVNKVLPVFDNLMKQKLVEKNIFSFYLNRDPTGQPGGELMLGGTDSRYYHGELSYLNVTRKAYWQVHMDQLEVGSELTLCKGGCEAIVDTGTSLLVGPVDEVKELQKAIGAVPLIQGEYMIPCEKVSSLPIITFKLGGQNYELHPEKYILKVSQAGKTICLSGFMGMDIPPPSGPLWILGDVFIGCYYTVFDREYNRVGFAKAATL

SMILES	pIC50 ([8]; Table XVII, mouse macrophage)	pIC50 ([10]; Table XVIII, mouse macrophage)	Anti-Inflammation Cf1 Mice [18]	pIC50 [19]	pIC50 [20]	Anti-Arthritis Rats [21]	pIC50 [22]	pIC50 [3]	pIC50 ([12]; Table XVIII, mouse macrophage)	pIC50 ([14]; Table XVIII, mouse macrophage)	pIC50 ([16]; Table XVII, mouse macrophage)	Anti-Pleurisy Rats [23]	pIC50 [24]	Tail Flick Mice [25]	pIC50 [26]	pIC50 [27]	Writhing Reflex Mice [28]	also measured
[BH3-][NH+]1CCOCC1 [Compound 1]	–	–	–	–	–	–	–	–	–	–	–	–	–	–	–	–	–	activity at 5 µM [1]: 93%; LD50 at 336 h [2]: 475 mg/kg; activity at 5 µM ([3]; pH 5, read-out: Mouse Liver Cathep.): 107%
CCOC(=O)[BH2-][N+](C)(C)C [Compound 6]	–	–	–	–	–	–	–	–	–	–	–	–	–	–	–	–	–	activity at 5 µM [1]: 16%; LD50 at 336 h [2]: 140 mg/kg
CCNC(=O)[BH2-][NH+](C)C [Compound 9, Dimethylamine-N-ethylcarbamoylborane]	–	–	–	–	–	–	–	–	–	–	–	–	–	–	–	–	–	pIC50 [4]: 4.36; pIC50 [5]: 6.01; pIC50 [6]: 5.71; pIC50 [7]: 5.12; pIC50 [8, 29]: 5.03; response vs control in vivo at 8 mg/kg ([9]; 8 mg/kg I.P.): 26.9%; pIC50 ([10]; Table VIII, mouse macrophages): 5.69; Anti-Inflammatory Activity Sprague Dawley Rats [11]: 41 % Control; pIC50 ([12]; Table VIII, mouse macrophages): 5.28; pIC50 [13]: 5.36; pIC50 ([14]; Table VIII, mouse macrophages): 5.48; pIC50 [15]: 5.09; pIC50 [16, 29]: 5.95; pIC50 [17]: 5.07
BC(=O)O [Compound 13]	5.27	5.65	41.7%	5.40	5.34	55.2	5.36	5.21	4.81	5.51	6.09	–	–	–	–	–	–	pIC50 [5]: 5.52; pIC50 [6]: 5.92; pIC50 [7]: 5.09; pIC50 [8, 29]: 5.27; response vs control in vivo at 20 mg/kg [9]: 17.4%; pIC50 ([10]; Table VIII, mouse macrophages): 5.65; Anti-Inflammatory Activity Sprague Dawley Rats [11]: 55 % Control; pIC50 ([12]; Table VIII, mouse macrophages): 5.17; pIC50 [13]: 5.12; pIC50 ([14]; Table VIII, mouse macrophages): 5.51; pIC50 [15]: 5.26; pIC50 [16, 29]: 6.09; pIC50 [17]: 5.19
CC#N.CO.C[N+](C)(C)[BH2-]C(=O)[O-].C[N+](C)(C)[BH2-]C(=O)[O-].C[N+](C)(C)[BH2-]C(=O)[O-].C[N+](C)(C)[BH2-]C(=O)[O-].C[N+](C)(C)[BH2-]C(=O)[O-].C[N+](C)(C)[BH2-]C(=O)[O-].O.O=[N+]([O-])[O-].[Cr+3].[Cr+3].[Cr+3].[O-2] [Compound 26]	5.92	5.68	58.5%	5.16	5.60	78.0	5.11	5.26	5.79	5.29	5.61	40.0	3.25	184	5.00	5.67	85.4%	–
C[N+](C)(C)[BH2-]C(=O)[O-].C[N+](C)(C)[BH2-]C(=O)[O-].NCCN.NCCN.[Cl-].[Co+3] [Compound 27]	5.71	5.86	49.6%	5.37	5.42	70.0	5.23	5.11	5.68	5.01	5.53	96.3	3.28	150	5.01	5.40	66.2%	–
CC(C)=O.C[N+](C)(C)[BH2-]C(=O)[O-].O=[N+]([O-])[O-].[Ca+2] [Compound 28]	5.62	5.62	65%	5.12	5.62	–	5.52	5.34	5.72	5.23	5.51	50.1	3.31	169	5.00	5.59	66.4%	–
